Series [1] can be described thus: Pharmacokinetic experiment in Beagle dogs. The conditions noted are these: oral, 5.0 mg/kg; for AUC(0-inf) / Cmax / Tmax / half-life: dog, plasma. The class given is in vivo. How it is done: Beagle dogs 8-10 kg were randomly divided into two groups, and the test compound was administered orally at a dosage of 5.0 mg/kg; after administration, blood was collected at the time points of 0.0833, 0.25, 0.5, 1.0, 2.0, 4.0, 6.0, 8.0, 24.0, 32.0 and 48.0 hours. A standard curve was established within a suitable range according to the sample concentration, and AB SCIEX API4000 LC-MS/MS was used to determine the concentration of the test compounds in the plasma sample in the MRM mode. According to the drug concentration-time curve, the WinNonLin 6.3 software non-compartmental model method was used to calculate the pharmacokinetic parameters.

A short description of series [2]: Pharmacokinetic experiment in cynomolgus monkey. The class given is in vivo, cynomolgus monkeys. The conditions noted are these: oral, 3 mg/kg; for AUC(0-inf) / Cmax / Tmax / half-life: cynomolgus monkey, plasma, female cynomolgus monkeys. How it is done: Three female cynomolgus monkeys of 3.0-3.5 kg were taken and orally administered with the test compound at a dosage of 3 mg/kg; after the administration, blood was collected at the time points of 0.083, 0.25, 0.5, 1, 2, 4, 6, 8, 24, 32 and 48 hours. A standard curve was established within an appropriate range based on the sample concentration, and AB SCIEX API 5000 LC-MS/MS was used to determine the concentration of the test compounds in the plasma sample in the MRM mode. According to the drug concentration-time curve, WinNnonlin 6.3 software non-compartmental model method was used to calculate the pharmacokinetic parameters.

Another series relates to Balb/c 3T3 fibroblast. The conditions noted are these: PMDA Examination Report (Jan. 8, 2019); cited from earlier work.
For series [3], the target named is mineralocorticoid receptor (MR) (Homo sapiens (Human), UniProt P08235). As to the kind of experiment: In vitro activity test: MR LBD-Gal4 DBD dual luciferase reporter gene assay in HEK293 cells with aldosterone at EC80. The class given is cell-based. The conditions noted are these: antagonism of aldosterone at EC80, 18 hours. The text has this:
Using the characteristics of luciferase binding to the substrate to generate a chemiluminescence reaction, the plasmid containing mineralocorticoid receptor (MR) ligand binding domain (LBD) fused with Gal4 DNA binding domain (DBD) and the firefly luciferase reporter gene plasmid under the control of Gal4 UAS (upstream activation sequence) are transfected into human embryonic kidney cells (HEK293). The changes in mineralocorticoid receptor activity before and after stimulation or the influence of different stimuli on mineralocorticoid receptor activity are judged by the level of firefly luciferase activity. At the same time, in order to reduce the impact of internal change factors on the accuracy of the experiment, the plasmid with Renilla luciferase gene is used as a control plasmid to transfect cells to provide an internal control for transcriptional activity, so that the test results are not interfered by changes in experimental conditions.
• 1) The HEK293 cells were collected after trypsinization and the cell density was adjusted to 500,000 cells/mL; • 2) FuGENE HD transfection reagent was added to the cell suspension; • 3) The above cell suspension was inoculated into a 96-well cell culture plate of 100 μL/well, and incubated for 24 hours at 37° C., 5% CO2; • 4) A series of concentrations of the test compound solution and EC80 concentration of agonist aldosterone were added to each well and incubated for 18 hours; • 5) Firefly and Renilla luciferase signals were detected by Promega dual luciferase reporter gene test system. Result Processing: • 1) After obtaining the firefly luciferase signal (F) and the Renilla luciferase signal (R), the Renilla luciferase signal was used for correction, that is, the F/R value was used for subsequent calculation of inhibition rate; • 2)% inhibition rate=(Max−X)/(Max−Min)×100%, wherein Max is the F/R value of the positive control well, Min is the F/R value of the negative control well, and X is the test compound well of different concentrations F/R value; • 3) IC50 was calculated by GraphPrism 5.0 mapping software.
(In a reporter assay the amount or activity of a reporter protein is the signal.)

Series [4] concerns Balb/c 3T3 cells. Particulars: mouse, 1 h.
Protocol: (§1) Preparation of the test compound solution: The test compound was dissolved in dimethyl sulfoxide to obtain a 10 mg/mL solution, and then diluted with dimethyl sulfoxide in multiples of 2.15 times into solutions of different concentrations.
(§2) Balb/c 3T3 cells were seeded on 96-well culture plates. After 24 hours of culture, the culture medium was discarded, different concentrations of test compounds or balanced salts (HBSS) solution containing positive control substance (chlorpromazine hydrochloride, CPZ) and vehicle control substance were added. Two culture plates of each concentration of the test compound and the positive control substance are a light (+UV) plate and a non-light (-UV) plate, respectively. After incubating for 1 hour, the light plate was placed under UVA with a light intensity of about 1.7 mw/cm2 until the light dose reached 5.0 J/cm2. The non-light plate was placed at room temperature and protected from light for the same time. After the light was over, the culture medium was replaced with fresh one and continuously cultured for 18-22 hours. About 3 hours before the culture was complete, the culture medium was replaced with a medium containing neutral red and serum-free. After incubation, neutral red eluent was added, the absorbance value (OD540) of each well at 540 nm was measured after shaking. The cell 50% inhibitory concentration (IC50), light stimulating factor (PIF) and/or average light effect (MPE) were calculated. The phototoxicity of the compound was determined according to the following criteria: PIF>5 is judged as positive for phototoxicity; 5>PIF>2 is judged as possible phototoxicity; 2>PIF is judged as no phototoxicity.
In series [5] the test system is Balb/c 3T3 cells. As to the kind of experiment: In vitro 3T3 cell neutral red uptake phototoxicity test. Particulars: for IC50: Mus musculus.
Protocol: as §1, §2
The mark [6] stands for this setting: BALB/c3T3, light or radiation study, read-out: IC50 (+UV).
Setting [7] is: BALB/c3T3, read-out: IC50 (−UV).

The structures appear in SMILES notation. In brackets after ≈: the same amount, converted by molar mass. Counter-ions that a name gives are not always drawn. Like-named read-outs stand apart in the source and are kept apart here.

mineralocorticoid receptor (MR), sequence (P08235 726-964, species assumed): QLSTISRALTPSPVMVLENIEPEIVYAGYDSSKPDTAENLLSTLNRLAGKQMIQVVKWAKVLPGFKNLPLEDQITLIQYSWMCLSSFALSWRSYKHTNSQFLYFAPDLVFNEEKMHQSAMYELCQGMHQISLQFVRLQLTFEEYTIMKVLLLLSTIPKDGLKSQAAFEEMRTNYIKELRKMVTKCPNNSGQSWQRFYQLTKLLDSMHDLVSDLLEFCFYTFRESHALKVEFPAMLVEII

As a reminder, the AUC(0-inf) is the area under the concentration-time curve extrapolated to infinity. As usually defined, the Cmax is the highest concentration seen after dosing. One may read the Tmax as the time from dosing to the highest level. The term half-life denotes how long it takes for the measured level to halve. As to `Cc1c(C(=O)Nc2ccc(S(C)(=O)=O)cc2)cn(CCO)c1-c1ccccc1C(F)(F)F` (atropisomer, axis not shown) [CS-3150, Esaxerenone, reference compound], in series [1], the AUC(0-inf) came out at 45600 ng·h/mL, the Cmax turned out to be 1580 ng/mL, the Tmax turned out to be 2.33 h and the half-life was 20.3 h. Further, in series [2], the AUC(0-inf) turned out to be 8990 ng·h/mL, the Cmax was determined as 741 ng/mL, the time to peak (Tmax) is 1.67 h and the half-life is 9.63 h. Also, in the series on Balb/c 3T3 fibroblast, the “light stimulus factor PIF” value is on record as over 17 and the “phototoxicity (in words)” value is listed as “phototoxic”.

By IC50 is commonly meant the concentration that inhibits the measured activity by half. `Cc1c(C(=O)Nc2ccc(S(C)(=O)=O)c(F)c2)cn(CC2CCO2)c1-c1ccccc1C(F)(F)F` (stereo not shown) [Example 5, N-(3-Fluoro-4-(methylsulfonyl)phenyl)-4-methyl-1-(oxetan-2-ylmethyl)-5-(2-(trifluoromethyl)phenyl)-1H-pyrrole-3-carboxamide]: half-maximal inhibition in series [3] (IC50) was put at 0.0215 µM.

As to `Cc1c(C(=O)Nc2ccc(S(C)(=O)=O)c(F)c2)cn(CCO)c1-c1ccccc1C(F)(F)F` [Example 1, N-(3-Fluoro-4-(methylsulfonyl)phenyl)-1-(2-hydroxyethyl)-4-methyl-5-(2-(trifluoromethyl)phenyl)-1H-pyrrole-3-carboxamide], the IC50 in series [3] turned out to be 0.00693 µM.

For `CN(C)CCCN1c2ccccc2Sc2ccc(Cl)cc21` [CPZ, chlorpromazine hydrochloride, reference compound], the “MPE (average light effect)” value in the series with Balb/c 3T3 cells [4] was determined as 0.368. Further, the “PIF (light stimulating factor)” value with Balb/c 3T3 cells [4] is given as 37.381. For the same molecule, the IC50 in the series on Balb/c 3T3 cells [5] (setting [6]) turned out to be 0.982 µg/mL; with Balb/c 3T3 cells [5] (setting [7]), 36.7 µg/mL.

As to `Cc1c(C(=O)Nc2ccc([S@SP2](C)(=O)=O)c(F)c2)cn(CCO)c1-c1ccccc1C(F)(F)F` [Example 2, (S)-1-(2-Hydroxyethyl)-4-methyl-N-(3-fluoro-4-(methylsulfonyl)phenyl)-5-(2-(trifluoromethyl)phenyl)-1H-pyrrole-3-carboxamide], in series [3], the IC50 was found to be 0.0034 µM. In series [1], the total exposure AUC(0-inf) was determined as 145000 ng·h/mL, the Cmax was 4690 ng/mL, the Tmax is 3.33 h and the half-life was 25.3 h. Besides, in series [1], the “pharmacokinetic properties compared with the control compound CS-3150” value is “higher exposure, blood concentration and long half-life”. In series [2], the AUC(0-inf) was 22000 ng·h/mL, the peak level (Cmax) was 1040 ng/mL, the Tmax came to 5.3 h and the half-life is 13 h. For the same molecule, in series [2] (cynomolgus monkeys), the “pharmacokinetic properties compared to the control compound CS-3150” value was “higher exposure, blood concentration and bioavailability”. In the series with Balb/c 3T3 cells [5] (Balb/c 3T3 cells, +UV vs −UV), the “MPE (average light effect)” value is given as −0.044 and the “PIF (light stimulating factor)” value was determined as 1.289. For the same molecule, the IC50 in the series with Balb/c 3T3 cells [5] (setting [6]) came out at 49.6 µg/mL (≈ 102 µM). Besides, the IC50 in the series with Balb/c 3T3 cells [5] (setting [7]) was determined as 63.8 µg/mL (≈ 132 µM). Further, the “in vitro phototoxicity (in words)” value with Balb/c 3T3 cells [5] (conclusion from Table 6) is “no in vitro phototoxicity”. In addition, the Phototoxicity result with Balb/c 3T3 cells [5] (judged from PIF) is “− (2>PIF is judged as no phototoxicity)”.

Turning to `Cc1c(C(=O)Nc2ccc(S(C)(=O)=O)c(F)c2)cn(-c2cccnc2)c1-c1ccccc1C(F)(F)F` [Example 7, N-(3-Fluoro-4-(methylsulfonyl)phenyl)-4-methyl-1-(pyridin-3-yl)-5-(2-(trifluoromethyl)phenyl)-1H-pyrrole-3-carboxamide], the midpoint of inhibition in series [3], the IC50, lay at 0.0845 µM.

In series [3], `Cc1c(C(=O)Nc2ccc(S(C)(=O)=O)c(F)c2)cn(CC2(O)CC2)c1-c1ccccc1C(F)(F)F` [Example 3, N-(3-Fluoro-4-(methylsulfonyl)phenyl)-1-((1-hydroxycyclopropyl)methyl)-4-methyl-5-(2-(trifluoromethyl)phenyl)-1H-pyrrole-3-carboxamide] had an IC50 of 0.0476 µM.

Turning to `Cc1c(C(=O)Nc2ccc(S(C)(=O)=O)c(F)c2)cn(C2COC2)c1-c1ccccc1C(F)(F)F` [Example 6, N-(3-Fluoro-4-(methylsulfonyl)phenyl)-4-methyl-1-(oxetan-3-yl)-5-(2-(trifluoromethyl)phenyl)-1H-pyrrole-3-carboxamide], half-maximal inhibition in series [3] (IC50) required 0.0303 µM.

The molecule `Cc1c(C(=O)Nc2cc(F)c3c(c2)sc(=O)n3C)cn(CCO)c1-c1ccccc1C(F)(F)F` [Example 8, N-(4-Fluoro-3-methyl-2-oxo-2,3-dihydrobenzo[d]thiazol-6-yl)-1-(2-hydroxyethyl)-4-methyl-5-(2-(trifluoromethyl)phenyl)-1H-pyrrole-3-carboxamide] showed an IC50 in series [3] of 0.0822 µM.

The values above are taken from patent US12527763B2, “Pyrrole amide compound and use thereof” (SUNSHINE LAKE PHARMA CO., LTD., priority 2019, dated 2026).
